The values that follow come from patent publication US12625141B2, “Fluorescent dye, preparation method and uses thereof” (FLUORESCENCE DIAGNOSIS (SHANGHAI) BIOTECH COMPANY LTD., priority 2019, dated 2026).

Structures are written as SMILES.

Tested on in the first data set: not listed separately
In words: Fluorescence emission in glycerol versus methanol (viscosity response). It counts as physicochemical. The following applies: 1×10^-5 M in glycerol and methanol, maximum excitation wavelength of each dye.
Consider `CN(C)c1ccc(/C=C(\C#N)c2ccc(C#N)cc2)cc1` [III-1], for which the “Glycerol/methanol fluorescence intensity ratio” value worked out at 990.
Still for that read-out and setting: in the case of `CCN(CC)c1ccc(/C=C(\C#N)c2ccc(C#N)cc2)cc1` [III-2] it was 870; in that of `CN(CCO)c1ccc(/C=C(\C#N)c2ccc(C#N)cc2)cc1` [III-3], 1025.
On the same count and under the same terms, in the case of `CN(C)CCN(C)c1ccc(/C=C(\C#N)c2ccc(C#N)cc2)cc1` [III-4] it was 892; in that of `CN(CCO)c1cnc(/C=C(\C#N)c2ccc(C#N)cc2)cn1` [III-6], 1148; in that of `CN(C)CCN(C)c1cnc(/C=C(\C#N)c2ccc(C#N)cc2)cn1` [III-7], 977.
On the same count and under the same terms, in the case of `CN(CCO)c1ccc(/C=C(\C#N)c2ccc(C#N)cc2)cn1` [III-8] it was 1168.
For the compound `CCN(CC)CCN(C)c1ccc(/C=C(\C#N)c2ccc(C#N)cc2)cn1` [III-9], the “Glycerol/methanol fluorescence intensity ratio” value is recorded as 920.
On to `CN(C)c1ccc(/C=C(\C#N)c2ccc(C#N)cc2)nc1` [III-10], for which the “Glycerol/methanol fluorescence intensity ratio” value turned out to be 1620.
On the same count and under the same terms, in the case of `CN(CCO)c1ncc(/C=C(\C#N)c2ccc(C#N)cc2)cn1` [III-11] it was 869; in that of `CN(C)CCN(C)c1cnc(/C=C(\C#N)c2ccc(C#N)cc2)nc1` [III-12], 855; in that of `CN(CCO)c1ccc(/C=C(\C#N)c2ccc(C#N)cn2)cc1` [III-13], 752.
Consider `CN(CCO)c1ccc(/C=C(\C#N)c2cnc(C#N)cn2)cc1` [III-14], for which the “Glycerol/methanol fluorescence intensity ratio” value is on record as 785.
On the same count and under the same terms, in the case of `N#C/C(=C\c1cc2c3c(c1)CCCN3CCC2)c1ccc(C#N)cc1` [III-15] it was 1011.
With `CN1CCc2cc(/C=C(\C#N)c3ccc(C#N)cc3)ccc21` [III-16], the “Glycerol/methanol fluorescence intensity ratio” value was found to be 491.
Same read-out and setting: in the case of `CNc1ccc2cc(/C=C(\C#N)c3ccc(C#N)cc3)sc2c1` [III-17] it was 828.

The data set is the same for the next values; noted with them: 1×10^-5 M, maximum excitation wavelength of each fluorescent dye.
As to `CN(C)c1ccc(/C=C(\C#N)c2ccc(C#N)cc2)cc1` [III-1], the “Emission (nm)” value turned out to be 530 nm.
As for `CCN(CC)c1ccc(/C=C(\C#N)c2ccc(C#N)cc2)cc1` [III-2], the “Emission (nm)” value stood at 530 nm.
Still for that read-out and setting: in the case of `CN(CCO)c1ccc(/C=C(\C#N)c2ccc(C#N)cc2)cc1` [III-3] it was 530 nm.
Still for that read-out and setting: in the case of `CN(C)CCN(C)c1ccc(/C=C(\C#N)c2ccc(C#N)cc2)cc1` [III-4] it was 521 nm.
Take `CN(CCO)c1cnc(/C=C(\C#N)c2ccc(C#N)cc2)cn1` [III-6]: the “Emission (nm)” value stood at 490 nm.
`CN(C)CCN(C)c1cnc(/C=C(\C#N)c2ccc(C#N)cc2)cn1` [III-7]: the “Emission (nm)” value was found to be 485 nm.
On the same count and under the same terms, in the case of `CN(CCO)c1ccc(/C=C(\C#N)c2ccc(C#N)cc2)cn1` [III-8] it was 495 nm; in that of `CCN(CC)CCN(C)c1ccc(/C=C(\C#N)c2ccc(C#N)cc2)cn1` [III-9], 490 nm; in that of `CN(C)c1ccc(/C=C(\C#N)c2ccc(C#N)cc2)nc1` [III-10], 520 nm.
Same read-out and setting: in the case of `CN(CCO)c1ncc(/C=C(\C#N)c2ccc(C#N)cc2)cn1` [III-11] it was 470 nm; in that of `CN(C)CCN(C)c1cnc(/C=C(\C#N)c2ccc(C#N)cc2)nc1` [III-12], 542 nm; in that of `CN(CCO)c1ccc(/C=C(\C#N)c2ccc(C#N)cn2)cc1` [III-13], 545 nm.
Still for that read-out and setting: in the case of `CN(CCO)c1ccc(/C=C(\C#N)c2cnc(C#N)cn2)cc1` [III-14] it was 550 nm; in that of `N#C/C(=C\c1cc2c3c(c1)CCCN3CCC2)c1ccc(C#N)cc1` [III-15], 561 nm; in that of `CN1CCc2cc(/C=C(\C#N)c3ccc(C#N)cc3)ccc21` [III-16], 555 nm.
As for `CNc1ccc2cc(/C=C(\C#N)c3ccc(C#N)cc3)sc2c1` [III-17], the “Emission (nm)” value was determined as 587 nm.

Tested on in a further data set: not listed separately
In words: Fluorescence emission at different viscosity conditions in diethanol-glycerol mixed solution. The class given is physicochemical. The following applies: 1×10^−5 M, excitation at 480 nm.
Turning to `CN(CCO)c1ccc(/C=C(\C#N)c2ccc(C#N)cc2)cc1` [III-3], the “Sensitivity of fluorescence intensity to viscosity” value is reported as “sensitive to viscosity”.
On the same count and under the same terms, in the case of `CN(C)CCN(C)c1ccc(/C=C(\C#N)c2ccc(C#N)cc2)cc1` [III-4] it was “sensitive to viscosity”.

A further data set concerns F30-8Pepper-5 RNA aptamer. In words: Binding to RNA aptamer, optical properties after binding. Particulars: after binding to RNA aptamer.
Consider `CN(CCO)c1ccc(/C=C(\C#N)c2ccc(C#N)cc2)cc1` [III-3], for which the Em/nm was 530 nm, the Ex/nm amounted to 485 nm and the “ε” value was determined as 65300 M⁻¹ cm⁻¹.
The matching figures for `CN(C)CCN(C)c1ccc(/C=C(\C#N)c2ccc(C#N)cc2)cc1` [III-4]: 514 nm, 458 nm and 44100 M⁻¹ cm⁻¹.
For `CN(CCO)c1cnc(/C=C(\C#N)c2ccc(C#N)cc2)cn1` [III-6], the Em/nm is 497 nm, the Ex/nm was found to be 435 nm and the “ε” value stood at 54700 M⁻¹ cm⁻¹.
On to `CN(C)CCN(C)c1cnc(/C=C(\C#N)c2ccc(C#N)cc2)cn1` [III-7], for which the Em/nm came to 485 nm, the Ex/nm is listed as 443 nm and the “ε” value worked out at 49100 M⁻¹ cm⁻¹.

The same data set, now with this note: after binding to RNA aptamer; relative method with Rhodamine 6G as the standard.
On to `CN(CCO)c1ccc(/C=C(\C#N)c2ccc(C#N)cc2)cc1` [III-3], for which the “QY (−)” value came out at 0.66.
On the same count and under the same terms, in the case of `CN(C)CCN(C)c1ccc(/C=C(\C#N)c2ccc(C#N)cc2)cc1` [III-4] it was 0.45.
Still for that read-out and setting: in the case of `CN(CCO)c1cnc(/C=C(\C#N)c2ccc(C#N)cc2)cn1` [III-6] it was 0.57; in that of `CN(C)CCN(C)c1cnc(/C=C(\C#N)c2ccc(C#N)cc2)cn1` [III-7], 0.42.

The data set is the same for the next values; noted with them: binding to RNA aptamer.
`CN(CCO)c1ccc(/C=C(\C#N)c2ccc(C#N)cc2)cc1` [III-3]: the Kd (commonly the equilibrium constant for the complex coming apart) came out at 3.5 nM. In other words, the single-digit nanomolar range.
Take `CN(CCO)c1cnc(/C=C(\C#N)c2ccc(C#N)cc2)cn1` [III-6]: the Kd was determined as 6.7 nM.
The same measure, in the same setting: in the case of `CN(C)CCN(C)c1cnc(/C=C(\C#N)c2ccc(C#N)cc2)cn1` [III-7] it was 8 nM.

The data set is the same for the next values; noted with them: fluorescence activation after binding to RNA aptamer.
For the compound `CN(CCO)c1ccc(/C=C(\C#N)c2ccc(C#N)cc2)cc1` [III-3], the “Activation Multiple” value was 3595.
The same measure, in the same setting: in the case of `CN(C)CCN(C)c1ccc(/C=C(\C#N)c2ccc(C#N)cc2)cc1` [III-4] it was 4748.
Regarding `CN(CCO)c1cnc(/C=C(\C#N)c2ccc(C#N)cc2)cn1` [III-6], the “Activation Multiple” value amounted to 16601.
The same measure, in the same setting: in the case of `CN(C)CCN(C)c1cnc(/C=C(\C#N)c2ccc(C#N)cc2)cn1` [III-7] it was 691.

A further data set relates to RNA aptamer in cells. In words: Labeling intracellular RNA aptamers in cells. The following applies: cells not expressing the RNA aptamer (FIG. 17B). The class given is cell-based.
Consider `CN(CCO)c1ccc(/C=C(\C#N)c2ccc(C#N)cc2)cc1` [III-3], for which the “Fluorescence of cells not expressing the RNA aptamer” value is given as “no fluorescence”.
On the same count and under the same terms, in the case of `CN(C)CCN(C)c1ccc(/C=C(\C#N)c2ccc(C#N)cc2)cc1` [III-4] it was “no fluorescence”; in that of `CN(CCO)c1cnc(/C=C(\C#N)c2ccc(C#N)cc2)cn1` [III-6], “no fluorescence”.
Same read-out and setting: in the case of `CN(C)CCN(C)c1cnc(/C=C(\C#N)c2ccc(C#N)cc2)cn1` [III-7] it was “no fluorescence”.

Still in this data set, the particulars now being: cells transcribing the RNA aptamer (FIG. 17A).
For the compound `CN(CCO)c1ccc(/C=C(\C#N)c2ccc(C#N)cc2)cc1` [III-3], the “Fluorescence of cells transcribing the RNA aptamer” value is given as “bright fluorescence”.
As to `CN(C)CCN(C)c1ccc(/C=C(\C#N)c2ccc(C#N)cc2)cc1` [III-4], the “Fluorescence of cells transcribing the RNA aptamer” value was “bright fluorescence”.
Same read-out and setting: in the case of `CN(CCO)c1cnc(/C=C(\C#N)c2ccc(C#N)cc2)cn1` [III-6] it was “bright fluorescence”.
The same measure, in the same setting: in the case of `CN(C)CCN(C)c1cnc(/C=C(\C#N)c2ccc(C#N)cc2)cn1` [III-7] it was “bright fluorescence”.

Another data set relates to ACTB-4Pepper RNA aptamer (skeleton protein mRNA) in 293T/17 cell line. As to the kind of experiment: Labeling intracellular mRNA, flow detection. It counts as cell-based. The following applies: 0.2 μM in PBS, incubated for 5 minutes. The source says:
FIGS. 18A and 18B are the application of molecular rotors III-3, III-43 in labeling intracellular mRNA.
As to `CN(CCO)c1ccc(/C=C(\C#N)c2ccc(C#N)cc2)cc1` [III-3], the “Background fluorescence in cells” value is given as “no obvious background fluorescence” and the “Labeling of skeleton protein mRNA in cell lines expressing target RNA” value is recorded as “could specifically mark the mRNA of skeleton protein”.
